Experimental data as given in the supplement of paper PMC10307832.

Columns and labels:
Experiment in all cases: relative viability (nuclei count vs DMSO), 5 days (fraction); higher = more cells survive
[1] = compound: C[C@]1(O)C[C@@H](c2nc(-c3ccc4ccc(-c5ccccc5)nc4c3)c3c(N)nccn32)C1 [Linsitinib] + CC(=O)Nc1cccc(-n2c(=O)n(C3CC3)c(=O)c3c(Nc4ccc(I)cc4F)n(C)c(=O)c(C)c32)c1 [Trametinib] (partner 0.02 µM)
Method in brief: (§1)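 Cells from lung cancer lines were seeded into 1536-well plates and, one day later, dosed by pin tool. Treatments were either a single drug or a fixed dose of an anchor drug with five library-drug doses (not always all listed) in √10 steps. After 5 days, nuclei were stained in a one-step fixation (final 0.05% Triton X-100, 1% formaldehyde, 1 ug/ml Hoechst) and counted on 4× images, and relative viability is the treated-to-vehicle nuclei ratio, as the median of duplicate plates.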

[2] = compound: C[C@]1(O)C[C@@H](c2nc(-c3ccc4ccc(-c5ccccc5)nc4c3)c3c(N)nccn32)C1 [Linsitinib] + O=C(c1cc(Cc2n[nH]c(=O)c3ccccc23)ccc1F)N1CCN(C(=O)C2CC2)CC1 [Olaparib] (partner 8 µM)
Method in brief: as §1

[3] = compound: Cc1ccc(C(=O)N(CCCN)[C@@H](c2nc3cc(Cl)ccc3c(=O)n2Cc2ccccc2)C(C)C)cc1 [Ispinesib] + Nc1ncn([C@H]2C[C@H](O)[C@@H](CO)O2)c(=O)n1 [Decitabine] (partner 2 µM)
Method in brief: as §1

[4] = compound: C[C@]1(O)C[C@@H](c2nc(-c3ccc4ccc(-c5ccccc5)nc4c3)c3c(N)nccn32)C1 [Linsitinib] + CC1(C)CCC(c2ccc(Cl)cc2)=C(CN2CCN(c3ccc(C(=O)NS(=O)(=O)c4ccc(N[C@H](CCN5CCOCC5)CSc5ccccc5)c(S(=O)(=O)C(F)(F)F)c4)cc3)CC2)C1 [Navitoclax] (partner 0.5 µM)
Method in brief: as §1

Cell Line	relative viability ([1]; first compound 0.01 µM)	relative viability ([1]; first compound 0.03162 µM)	relative viability ([1]; first compound 0.1 µM)	relative viability ([1]; first compound 0.3162 µM)	relative viability ([1]; first compound 1 µM)	relative viability ([2]; first compound 0.01 µM)	relative viability ([2]; first compound 0.03162 µM)	relative viability ([2]; first compound 0.1 µM)	relative viability ([2]; first compound 0.3162 µM)	relative viability ([2]; first compound 1 µM)	relative viability ([3]; first compound 0.001 µM)	relative viability ([3]; first compound 0.003162 µM)	relative viability ([3]; first compound 0.01 µM)	relative viability ([3]; first compound 0.03162 µM)	relative viability ([3]; first compound 0.1 µM)	relative viability ([4]; first compound 0.01 µM)	relative viability ([4]; first compound 0.03162 µM)	relative viability ([4]; first compound 0.1 µM)	relative viability ([4]; first compound 0.3162 µM)	relative viability ([4]; first compound 1 µM)
NCI-H522	0.918	0.784	0.714	0.613	0.582	0.895	0.588	0.554	0.512	0.57	0.662	0.649	0.751	0.687	0.673					
PC-3 [JPC-3]	0.691	0.766	0.668	0.591	0.545	1.16	1.1	1.2	1.04	1.02	0.838	0.867	0.781	0.796	0.465	0.842	0.798	0.785	0.731	0.669
NCI-H1703						0.479		0.448	0.755	0.189						0.894		1.43	0.924	0.932
EPLC-272H	0.245	0.25	0.296		0.26	1.42	0.694	0.841	0.469	0.479	0.395	0.355	0.377	0.322	0.25	1.12	1.29	1.41		1.2
NCI-H1792	0.506	0.432	0.335	0.32	0.335	0.341	0.348	0.373	0.298	0.172	0.548	0.546	0.725	0.484	0.238	0.553	0.597	0.5	0.54	0.438
NCI-H2085	0.557	0.644	0.503	0.449	0.514	0.743	0.795	0.901	0.713	0.805	0.487	0.524	0.581	0.577	0.556	1.03	1.11	1.22	1.07	1.2
LK-2	0.892	0.626	0.599	0.39	0.643	0.63	0.721	0.683	0.415	0.389	0.253	0.419	0.36	0.216	0.153	0.875	0.829	0.759	0.575	0.531
NCI-H1395	1		1.05	0.961	1.03	0.451		0.441	0.454	0.444	0.734	0.746	0.577	0.467	0.412	1.14	0.904	1.47	1	1.15
ABC-1						0.859	1.04	0.785	1.09	0.626	0.997	1.12	1.35		0.509					
